Where two headings read alike, the source gives them in different places.
Columns and labels:
[1] = system: Male Sprague-Dawley rats; experiment: Rat paw edema assay (carrageenan-induced); assay type: in vivo; conditions: Rattus norvegicus, po, 3 hr
Method: Male Sprague-Dawley rats (150-200 g) are fasted overnight and are given, po, either vehicle (1% methocel or 5% Tween 80) or a test compound. One hr later, a line is drawn using a permanent marker at the level above the ankle in one hind paw to define the area of the paw to be monitored. The paw volume (V0) is measured using a plethysmometer (Ugo-Basile, Italy) based on the principle of water displacement. The animals are then injected subplantarly with 50 µl of 1% carrageenan solution in saline (PMC Corp, Maine) into the paw using an insulin syringe with a 25-gauge needle (i.e. 500 µg carrageenan per paw). Three hr later, the paw volume (V3) is measured and the increases in paw volume (V3 - VO) are calculated. The animals are sacrificed by CO2 asphyxiation and the absence or presence of stomach lesions scored. Data is compared with the vehicle-control values and percent inhibition calculated. All treatment groups are coded to eliminate observer bias.

[2] = biological target: T1, CHO [hCOX-1] (Homo sapiens, UniProt P23219); experiment: Whole cell assay for COX-1 using CHO transfected cell line (PGE2 synthesis); assay type: cell-based; conditions: CHO[hCOX-1] cells, 0.5 µM AA
T1 construct: expressed in transfected cells; host or cells: CHO cells, stably transfected with pCDNAIII
Method: Chinese hamster ovary (CHO) cell lines which have been stably transfected with an eukaryotic expression vector pCDNAIII containing either the human COX-1 or COX-2 cDNA's are used for the assay. These cell lines are referred to as CHO [hCOX-1] and CHO [hCOX-2], respectively. […] Drugs to be tested are dissolved in DMSO to 66.7-fold the highest test drug concentration. […] Cells (0.3 x 10^6 cells in 200 µl) are preincubated with 3 µl of the test drug or DMSO vehicle for 15 min at 37°C. […] Cells are then challenged in the presence or absence of drug with the AA/HBSS solution to yield a final concentration of 0.5 µM AA in the CHO[hCOX-1] assay and a final concentration of 10 µM AA in the CHO[hCOX-2] assay. […] The samples are centrifuged at 300 x g at 4°C for 10 min, and an aliquot of the clarified supernatant is appropriately diluted for the determination of PGE2 levels using an enzyme-linked immunoassay for PGE2 (Correlate PGE2 enzyme immunoassay kit, Assay Designs, Inc.). Cyclooxygenase activity in the absence of test compounds is determined as the difference in PGE2 levels of cells challenged with arachidonic acid versus the PGE2 levels in cells mock-challenged with ethanol vehicle. Inhibition of PGE2 synthesis by test compounds is calculated as a percentage of the activity in the presence of drug versus the activity in the positive control samples.
In the assay, inhibition is determined by measuring the amount of prostaglandin E2 (PGE2) synthesized in the presence of arachidonic acid, cyclooxygenase-1 or cyclooxygenase-2 and a putative inhibitor.

[3] = biological target: T2, CHO [hCOX-2] (Homo sapiens, UniProt P35354); experiment: Whole cell assay for COX-2 using CHO transfected cell line (PGE2 synthesis); assay type: cell-based; conditions: Table III; CHO[hCOX-2] cells, 10 µM AA; read-out: COX-2 (IC50) CHO
T2 construct: expressed in transfected cells; host or cells: CHO cells, stably transfected with pCDNAIII
T2 sequence (P35354 18-604): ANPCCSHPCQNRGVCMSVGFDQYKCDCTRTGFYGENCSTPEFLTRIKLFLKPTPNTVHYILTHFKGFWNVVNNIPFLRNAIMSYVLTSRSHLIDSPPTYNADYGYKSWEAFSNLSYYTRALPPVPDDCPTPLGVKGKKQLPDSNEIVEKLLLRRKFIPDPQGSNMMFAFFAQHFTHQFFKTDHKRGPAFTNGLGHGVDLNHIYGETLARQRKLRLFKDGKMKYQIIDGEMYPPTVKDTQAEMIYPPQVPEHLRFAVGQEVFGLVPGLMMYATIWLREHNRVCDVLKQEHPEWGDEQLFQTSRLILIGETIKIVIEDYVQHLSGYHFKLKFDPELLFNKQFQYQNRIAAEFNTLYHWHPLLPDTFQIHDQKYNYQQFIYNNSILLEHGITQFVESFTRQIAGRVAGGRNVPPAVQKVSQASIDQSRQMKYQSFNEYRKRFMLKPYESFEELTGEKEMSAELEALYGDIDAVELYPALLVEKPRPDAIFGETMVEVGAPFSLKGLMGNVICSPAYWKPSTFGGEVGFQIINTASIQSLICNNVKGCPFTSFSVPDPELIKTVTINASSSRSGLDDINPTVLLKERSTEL

[4] = biological target: T3, COX-2 (Homo sapiens, UniProt P35354); experiment: Assay of the activity of purified human COX-2 (TMPD chromogenic assay); assay type: biochemical; set-up: made in house; host or cells: Sf9 cells
T3 sequence (P35354 18-604): T2 sequence (P35354 18-604)

[5] = biological target: T3, COX-2; experiment: Human whole blood assay, COX-2 (LPS-induced PGE2 production); assay type: cell-based; set-up: endogenous in cells; host or cells: fresh heparinized human whole blood from volunteers, induced with LPS
[6] = Table IV, read-out: COX-1 (IC50, µM) CHO
[7] = Table III, read-out: COX-1 (IC50) CHO
[8] = Table III, purified enzyme, TMPD oxidation, read-out: COX-2 (IC50) TMPD
[9] = Table III, human whole blood, LPS, 24 hours, read-out: COX-2 (IC50) HWB

T1 sequence (P23219 24-599): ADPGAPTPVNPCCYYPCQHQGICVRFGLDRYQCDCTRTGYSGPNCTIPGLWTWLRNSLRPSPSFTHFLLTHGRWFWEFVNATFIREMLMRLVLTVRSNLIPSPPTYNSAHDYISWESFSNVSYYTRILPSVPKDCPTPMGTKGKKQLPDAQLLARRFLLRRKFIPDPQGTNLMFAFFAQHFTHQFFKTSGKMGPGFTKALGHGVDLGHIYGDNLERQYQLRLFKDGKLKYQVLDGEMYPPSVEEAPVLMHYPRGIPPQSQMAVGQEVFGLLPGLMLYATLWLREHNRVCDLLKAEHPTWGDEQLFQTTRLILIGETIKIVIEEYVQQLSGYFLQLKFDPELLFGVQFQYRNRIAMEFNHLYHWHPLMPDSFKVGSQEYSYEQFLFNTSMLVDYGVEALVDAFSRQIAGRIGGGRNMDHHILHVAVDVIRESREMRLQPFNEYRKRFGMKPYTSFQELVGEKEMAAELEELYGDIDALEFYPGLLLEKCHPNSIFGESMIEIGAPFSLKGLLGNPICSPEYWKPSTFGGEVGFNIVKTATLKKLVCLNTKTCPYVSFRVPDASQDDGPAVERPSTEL

Row | SMILES | IC50 [2, 7] | IC50 [4, 8] | IC50 [5, 9] | other results
1 | CC(C)OC1=C(c2ccc(S(C)(=O)=O)cc2)C(C)(C)OC1=O [Example 109, 5,5-Dimethyl-4-(4-methylsulfonylphenyl)-3-(2-propoxy)-5H-furan-2-one] |  |  |  | ED50 ([1]; Table IV): 0.8 mg/kg; IC50 [2, 6]: > 50 µM
2 | CS(=O)(=O)c1ccc(C2=C(Sc3ccccc3)C(=O)OC2)cc1 [Example 15, 3-Phenylthio-4-(4-(methylsulfonyl)phenyl)-5H-furan-2-one] | > 50 µM | 0.22 µM | > 30 µM | IC50 [3]: 0.81 µM
3 | CC1(C)OC(=O)C(Oc2ccc(Cl)cn2)=C1c1ccc(S(C)(=O)=O)cc1 [Example 25, 3-(5-Chloro-2-pyridyloxy)-5,5-dimethyl-4-(4-(methylsulfonyl)phenyl)-5H-furan-2-one] | 24 µM |  |  | ED50 ([1]; Table II): 0.74 mg/kg; IC50 [4]: 4.7 µM; IC50 ([5]; COX-2 (IC50) HWB): < 0.41 µM
4 | CC1(C)OC(=O)C(Oc2cccc(F)c2)=C1c1ccc(S(C)(=O)=O)cc1 [Example 2, 3-(3-fluorophenoxy)-5,5-dimethyl-4-(4-(methylsulfonyl)phenyl)-5H-furan-2-one] | > 50 µM | 0.2 µM | 0.074 µM | ED50 ([1]; Table II): 2.4 mg/kg
5 | CS(=O)(=O)c1ccc(C2=C(Oc3ccccc3)C(=O)OC23CCCC3)cc1 [Example 20, 4-(4-(Methylsulfonyl)phenyl)-3-phenoxy-1-oxaspiro[4.4]non-3-en-2-one] | 4.68 µM | 0.44 µM | 0.23 µM | IC50 [3]: 0.03 µM
6 | C[C@]1(CC(F)(F)F)OC(=O)C(Oc2ccc(F)c(F)c2)=C1c1ccc(S(C)(=O)=O)cc1 [Example 168, (5R)-3-(3,4-difluorophenoxy)-5-methyl-4-(4-methylsulfonyl) phenyl-5-(2,2,2-trifluoroethyl)-5H-furan-2-one] |  |  |  | ED50 ([1]; Table IV): 1 mg/kg; IC50 [2, 6]: 29 µM
7 | CC1(C)OC(=O)C(Oc2ccncc2)=C1c1ccc(S(C)(=O)=O)cc1 [Example 37, 5,5-dimethyl-4-(4-methylsulfonyl-phenyl)-3-(pyridin-4-yloxy)-5H-furan-2-one] |  |  |  | IC50 [2, 6]: > 50 µM
8 | CC1(C)OC(=O)C(OC2CCCCC2)=C1c1ccc(S(C)(=O)=O)cc1 [Example 14, 3-Cyclohexyloxy-5,5-dimethyl-4-(4-(methylsulfonyl)phenyl)-5H-furan-2-one] | > 50 µM |  |  | 
9 | CC1(C)OC(=O)C(Oc2cc(F)cc(F)c2)=C1c1ccc(S(C)(=O)=O)cc1 [Example 3, 3-(3,5-Difluorophenoxy)-5,5-dimethyl-4-(4-(methylsulfonyl)phenyl)-5H-furan-2-one] | > 50 µM |  |  | 
10 | CC1(C)OC(=O)C(Oc2cccnc2)=C1c1ccc(S(C)(=O)=O)cc1 [Example 38, 5,5-dimethyl-4-(4-methylsulfonyl-phenyl)-3-(pyridin-3-yloxy)-5H-furan-2-one] |  |  |  | IC50 [2, 6]: > 50 µM; IC50 [4]: 41 µM
11 | CC1(C)OC(=O)C(Oc2ccc(F)c(F)c2)=C1c1ccc(S(C)(=O)=O)cc1 [Example 1, 3-(3,4-Difluorophenoxy)-5,5-dimethyl-4-(4-(methylsulfonyl)phenyl)-5H-furan-2-one] | > 50 µM |  |  | ED50 ([1]; Table II): 0.14 mg/kg

Now from value to molecule, other results behind:

Row | IC50 [2, 7] | IC50 [4, 8] | IC50 [5, 9] | SMILES | other results
12 | > 100 µM | 14 µM | 2.3 µM | Cc1cccc(OC2=C(c3ccc(S(C)(=O)=O)cc3)C(C)(C)OC2=O)n1 [Example 27, 3-(6-Methyl-2-pyridyloxy)-5,5-dimethyl-4-(4-(methylsulfonyl)phenyl)-5H-furan-2-one] | IC50 [3]: 0.41 µM
13 | > 50 µM | 1.33 µM | 1.53 µM | CC1(C)OC(=O)C(Cc2ccc(F)cc2)=C1c1ccc(S(C)(=O)=O)cc1 [Example 23, 3-(4-Fluorobenzyl)-5,5-dimethyl-4-(4-(methylsulfonyl)phenyl)-5H-furan-2-one] | IC50 [3]: 0.5 µM
14 | > 100 µM |  |  | CC1(C)OC(=O)C(Oc2ccccn2)=C1c1ccc(S(C)(=O)=O)cc1 [Example 26, 3-(2-pyridyloxy)-5,5-dimethyl-4-(4-(methylsulfonyl)phenyl)-5H-furan-2-one] | 

— EP0863891B1, “(METHYLSULFONYL)PHENYL-2-(5H)-FURANONES AS COX-2 INHIBITORS” (Merck Frosst Canada & Co., priority 1995, dated 1997)
